Measured values published in PubChem BioAssay AID179 (DTP/NCI, 2004).
Several values for one entry are separate records, joined by “and”; a condition that tells them apart may be missing. Identical values can stand only once. Activity calls are given as the source filed them.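 How the source made its calls: active means compounds giving half or more protection of infected cells from virus-caused growth loss, again on retest; inactive means the rest.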

System: CEM cells HIV-1 protection, formazan growth assay
Assay: NCI AIDS Antiviral Assay
Conditions: for IC50: measured here: growth of uninfected CEM cells
Method in brief: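 Five concentrations of each compound were applied to infected and uninfected human CEM cells. Protection from HIV-1 was judged from growth measured with a soluble formazan assay.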

## COc1cc2nncc(SCc3ccc(Cl)c(Cl)c3)c2cc1OC
  EC50: > 39.8 µM
  IC50: 4.57 µM

## CCOc1ccccc1NC(=O)C1=C(C)NC(C)=C(C(=O)Nc2ccccc2OCC)C1c1ccc(NC(C)=O)cc1
  EC50: > 12.6 µM
  IC50: > 12.6 µM

## CC(C)C(/C=C/c1ccc(Br)cc1)=N\NC(N)=O
  EC50: > 32.4 µM
  IC50: > 32.4 µM

## CC[C@H]1OC(=O)[C@H](C)[C@@H](OC2CC(C)(OC)C(O)C(C)O2)[C@H](C)[C@@H](OC2OC(C)CC(N(C)C)C2OC(=O)CCC2CCCC2)[C@](C)(O)C[C@@H](C)C(=O)[C@H](C)[C@@H](O)[C@]1(C)O (stereo partly specified)
  EC50: > 100 µM
  IC50: 40.7 µM

## O=C(/C=C/c1ccc(O)c(O)c1)OCCc1ccc2ccccc2c1
  EC50: > 200 µM
  IC50: 4.68 µM

## COC(=O)/C([Se]c1c(C)cc(C)cc1C)=C(\[Se]c1c(C)cc(C)cc1C)C(=O)OC
  outcome: inactive

## COc1cc(C2c3cc4c(cc3OC(Nc3ccccc3)C2C)OCO4)cc(OC)c1O (stereo unspecified)
  outcome: inactive

## S=C1N(c2ccc(Cl)cc2)C2=C(N=Nc3cc(Cl)ccc3Cl)C(=Nc3ccccc3S2)N1c1ccccn1
  EC50: > 40.7 µM
  IC50: > 40.7 µM

## C/C(=N\NC(=S)N/N=C(\C)c1ccccn1)c1ccccn1
  EC50: > 200 µM
  IC50: 1.32 µM

## CCc1nc(N)nc(N)c1-c1ccc(Cl)c(N=NN(C)C)c1
  EC50: > 1 µM
  IC50: 0.589 µM

## C[C@H]1[C@H](C)Oc2c3c(c4c(CO)cc(=O)oc4c2[C@H]1O)OC(C)(C)C=C3
  EC50: > 200 µM
  IC50: > 200 µM

## NC(N)=NS(=O)(=O)c1ccc(Nc2c3ccccc3nc3c(C(=O)N4CCN(CCO)CC4)cccc23)cc1
  EC50: > 40.7 µM
  IC50: > 40.7 µM

## NC(CCCCNC(=O)CNC(=O)OCc1ccccc1)C(=O)NC(CCCCNC(=O)CNC(=O)OCc1ccccc1)C(=O)NC(CCCCNC(=O)CNC(=O)OCc1ccccc1)C(=O)NC(CCCCNC(=O)CNC(=O)OCc1ccccc1)C(=O)NC(CCCCNC(=O)CNC(=O)OCc1ccccc1)C(=O)NC(CCCCNC(=O)CNC(=O)OCc1ccccc1)C(=O)O (stereo unspecified)
  EC50: > 100 µM
  IC50: > 100 µM

## O=C(Cn1c2ccc(Br)cc2c2nc3ccccc3nc21)Nc1ccccc1
  EC50: > 100 µM
  IC50: > 100 µM

## O=C1c2cccc3cccc(c23)C(=O)N1CCNCCN1C(=O)c2cccc3cccc(c23)C1=O
  EC50: > 29.5 µM
  IC50: 10.5 µM

## CN(C)c1ccc(/C=C/C=C(/C#N)c2ccccc2)cc1
  EC50: > 100 µM
  IC50: 12.3 µM

## OC(C/C=N/N=C/CC(O)(C(F)(F)Cl)C(F)(F)Cl)(C(F)(F)Cl)C(F)(F)Cl
  EC50: > 200 µM
  IC50: 89.1 µM

## Cc1ccccc1-n1c(C)nc2ccccc2c1=O
  EC50: > 269 µM
  IC50: > 269 µM

## CCNC(=S)NNC(=O)c1ccccc1Nc1ccccc1C(=O)NNC(=S)NCC
  outcome: inactive
  IC50: 112 µM

## Cc1ccsc1C(=S)Nc1ccc(Cl)c(/C=N/OC(C)(C)C)c1
  EC50: 0.141 µM
  IC50: 14.1 µM

## O=C1C=CC(O)=CC1=P(c1ccccc1)(c1ccccc1)c1ccccc1
  EC50: > 200 µM
  IC50: 32.4 µM

## CNC1c2ccccc2C(=O)c2cc3c(cc21)OCCOCCOCCOCCO3 (stereo unspecified)
  EC50: > 200 µM
  IC50: 36.3 µM

## COc1cccc(NC(=O)CC(=O)N2N=C(N(CCC#N)c3ccc(Cl)cc3)CC2c2ccccc2)c1 (stereo unspecified)
  EC50: > 69.2 µM
  IC50: > 69.2 µM

## COC1OC2COC(c3ccccc3)OC2C(OS(=O)(=O)c2ccc(C)cc2)C1OS(=O)(=O)c1ccc(C)cc1 (stereo unspecified)
  outcome: inactive

## OC(C#CCN1CCCC1)(c1ccccc1)c1ccccc1Cl (stereo unspecified)
  EC50: > 200 µM
  IC50: 70.8 µM

## CC(O)C(O)C(O)C(O)c1nc2ccccc2[nH]1 (stereo unspecified)
  outcome: inactive

## C=C1CN(S(=O)(=O)c2ccc(C)cc2)CCCN(Cc2ccsc2)CCCN(S(=O)(=O)c2ccc(C)cc2)C1
  EC50: > 200 µM
  IC50: 52.5 µM

## Clc1ccc2c(c1)nnn1nccc21
  EC50: > 35.5 µM
  IC50: > 35.5 µM

## CNC(=O)CCC(NC(C)=O)C(=O)NC(Cc1ccc(NC(=O)CCCCC(C)=O)cc1)C(=O)NC(CCC(=O)NC)C(=O)NC (stereo unspecified)
  EC50: > 200 µM
  IC50: > 200 µM

## CC(C)N(C(=O)C12C3C4C1C1C2C3C41C(=O)O)C(C)C (stereo unspecified)
  EC50: > 129 µM
  IC50: > 129 µM

## O=C(Oc1ccc(Cl)cc1[N+](=O)[O-])c1ccccc1
  outcome: inactive

## Cc1cc2c(=O)cc(-c3ccc(Cl)cc3Cl)oc2c(C(=O)O)c1C
  outcome: inactive

## CN(CCC#N)c1ccc(/C=C(\C#N)c2ccc(Br)cc2)cc1
  EC50: > 200 µM
  IC50: 4.57 µM

## CC1S(=O)(=O)OCCOS1(=O)=O
  EC50: > 1150 µM
  IC50: 123 µM

## O=C1CCCC[C@H]1[C@H]1CCC[C@@H]([C@H]2CCCCC2=O)C1=O
  EC50: > 871 µM
  IC50: 398 µM

## CN(NC1=NCCO1)c1ccc2ccccc2c1
  EC50: > 200 µM
  IC50: 28.8 µM

## CC(CCc1ccccc1)NCC(O)n1c(/N=N/N(C)C)nc2c1c(=O)n(C)c(=O)n2C (stereo unspecified)
  EC50: > 200 µM
  IC50: > 200 µM

## O=C(CCc1ccc(O)cc1)c1c(O)cc(O)cc1OC1OC(CO)C(O)C(O)C1O (stereo unspecified)
  EC50: > 200 µM
  IC50: > 200 µM

## Cc1cc(N(CCC#N)CCC#N)ccc1/C=C1N=C(/C=C\c2ccccc2)N(c2ccc(Cl)cc2)C\1=O
  outcome: inactive

## CCCCN(CCCC)CCNc1ccc(Cl)c2oc3cc(C)ccc3c(=O)c12
  EC50: > 21.9 µM
  IC50: > 21.9 µM

## O=C(NNC(=O)c1ccccc1O)c1ccc(O)cc1
  EC50: > 200 µM
  IC50: 14.5 µM

## C[C@]12CCC(=O)C(O)=C1CCC2=O
  outcome: inactive

## CC1(Cn2ccc(=O)[nH]c2=O)CC(C2(C)OCCO2)C(=O)O1 (stereo unspecified)
  EC50: > 813 µM
  IC50: > 813 µM

## CCN=Cc1c(O)c(O)c(C(C)C)c2cc(C)c(-c3c(C)cc4c(C(C)C)c(O)c(O)c(C=NCC)c4c3O)c(O)c12
  outcome: inactive

## O=C1OCCN1c1ccccc1
  EC50: > 1100 µM
  IC50: > 1100 µM

## O=C(O)/C=C/c1ccc(OS(=O)(=O)O)cc1
  EC50: > 200 µM
  IC50: > 200 µM

## C1=CCCC=CCC1.C[PH+](C)C.C[PH+](C)C.C[PH+](C)C.[Cl-].[Ir]
  outcome: inactive

## COC(=O)c1csc(-c2nc(CCNC(=O)OC(C)(C)C)sc2Br)n1
  EC50: > 79.4 µM
  IC50: 31.6 µM

## CC(C)(C)[C@H]1CCC2(OCCO2)[C@](O)(CCCO)C1
  EC50: > 200 µM
  IC50: > 200 µM

## COc1cc(N/N=C/C#N)cc(OC)c1OC
  EC50: > 45.7 µM
  IC50: 2.24 µM

## COC(=O)c1cccc(C)c1C1CN=NC12Cc1c(ccc(C)c1C)C2=O (stereo unspecified)
  EC50: > 200 µM
  IC50: > 200 µM

## CCC[CH2][Sn]([CH2]CCC)([O]C(=O)/C=C/c1ccccc1F)[O]C(=O)/C=C/c1ccccc1F
  EC50: > 9.33 µM
  IC50: > 9.33 µM

## O=C(Nc1ccccc1)OCCN=C1c2ccccc2CCc2ccccc21
  EC50: > 200 µM
  IC50: 18.6 µM

## CCCCNc1nc(N)nc(Nc2ccc(Br)cc2)c1N=O
  EC50: > 55 µM
  IC50: 23.4 µM

## CC1(C)C2CCC(=O)C1CC2 (stereo unspecified)
  EC50: > 200 µM
  IC50: > 200 µM

## Nc1ccccc1OCCCOc1ccccc1N
  EC50: > 200 µM
  IC50: 110 µM

## COc1ccccc1C(=O)c1c(NCc2ccccc2)c(=O)c1=O
  EC50: > 200 µM
  IC50: 93.3 µM

## Nc1nc(=S)c2ncn(C3CC(O)C(CO)O3)c2[nH]1 (stereo unspecified)
  EC50: > 891 µM
  IC50: 0.457 µM and 2.09 µM

## Cc1ccc(-c2nnc(-c3nn(-c4ccccc4)c4nc5ccccc5nc34)o2)cc1
  outcome: inactive

## N#Cc1[nH]c(=O)n(-c2cccc3ccccc23)c1N
  EC50: > 200 µM
  IC50: > 200 µM

## COCOc1ccc(C(=O)C(C)c2ccc(OCOC)cc2OCOC)c(O)c1 (stereo unspecified)
  EC50: > 200 µM
  IC50: 25.7 µM
